Test results taken from patent US8017313B2, “Human G protein-coupled receptor and modulators thereof for the treatment of cardiovascular disorders” (Arena Pharmaceuticals, Inc., priority 2003, dated 2011).

system: RUP40 transcript in neonatal rat ventricular myocytes (NRVMs); assay: RT-PCR of RUP40 transcript in neonatal rat ventricular myocytes; assay type: cell-based; settings: 24 hours following addition to media, FIG. 4
Experimental: Neonatal rat ventricular myocytes (NRVMs) were isolated and cultured as described previously [Adams, J W et al., J Biol Chem (1996) 271:1179-86]. Briefly, hearts were obtained from 1- to 2-day old Sprague-Dawley rat pups and digested with collagenase, and myocytes were purified by passage through a Percoll gradient. Cells were plated onto tissue culture dishes precoated with 1% gelatin and maintained overnight in 4:1 DMEM/medium-199 supplemented with 10% horse serum, 5% fetal calf serum, and antibiotics (100 units/ml penicillin and 100 μg/ml streptomycin. After 18 hours in plating medium, myocytes were washed with maintenance medium (DMEM/medium 199 plus antibiotics) to remove dead cells and debris and refreshed with maintenance medium for the duration of the experiment.
Total RNA isolated from NRVMs and fibroblasts as described above was used as a template for generation of reverse transcribed DNA (RT-DNA) using the RT for PCR kit (Becton Dickinson, Franldin, N.J.) according to manufacturer's instructions. RUP40 expression was detected in RT-DNA samples by PCR. PCR conditions were: 96° C. or 2 min; 30 cycles of 96° C. for 30 sec, 55° C. for 30 sec, 72° C. for 2 min; 72° C. for 10 min.
The amplified rat RUP40 DNA product is of size 403 base pairs. G3PDH amplifiers (Becton Dickinson, Franldin, N.J.) were added to each PCR reaction as an internal control.

**Q.** How did the “RUP40 transcript levels in the myocytes” value turn out when `CNC[C@H](O)c1cccc(O)c1` [PE, phenylephrine] was run?
**A.** Its value is “remain elevated”.

**Q.** `CCCCCCCCCCCCCC(=O)O[C@@H]1[C@@H](C)[C@@]2(O)[C@@H](C=C(CO)C[C@]3(O)C(=O)C(C)=C[C@@H]23)[C@@H]2C(C)(C)[C@]12OC(C)=O` [PMA, phorbol 12-myristate 13-acetate] was tested. Which “RUP40 transcript levels in the myocytes” value did it give?
**A.** The value was “drop dramatically”.

**Q.** For prostaglandin F2 alpha [PG], which “RUP40 transcript levels in the myocytes” value is on record?
**A.** The value was “remain elevated”.
